Active and inactive are the calls of the source. No cut-off for these calls is given here.
Tests used:
HCC827 [1] = test: Induction of cell cycle arrest in human HCC827 cells assessed as accumulation in S phase at 1 uM incubated for 32 hrs by PI staining based flow cytometry analysis (reference value: 41.26 %); assay type: functional
HCC827 [2] = test: Protac activity at E3 ubiquitin ligase/EGFR in human HCC827 cells assessed as increase in degradation of EGFR at 100 nM pretreated with VHL-L for 5 hrs followed by compound addition and measured after 32 hrs by Western blot analysis; assay type: cell-based
HCC827 [3] = test: Protac activity at E3 ubiquitin ligase/EGFR in human HCC827 cells assessed as increase in degradation of EGFR at 100 nM incubated for 72 hrs by Western blot analysis relative to control; assay type: cell-based
HCC827 [4] = test: Protac activity at E3 ubiquitin ligase/EGFR in human HCC827 cells assessed as increase in degradation of EGFR at 1 to 10 uM pretreated with MG-132 for 6 hrs followed by compound addition and measured after 30 hrs by Western blot analysis; assay type: cell-based; conditions: dose 1-10 µM
HCC827 [5] = test: Protac activity at E3 ubiquitin ligase/EGFR in human HCC827 cells assessed as increase in degradation of EGFR at 1 to 10 uM pretreated with MLN-4924 for 6 hrs followed by compound addition and measured after 30 hrs by Western blot analysis; assay type: cell-based; conditions: dose 1-10 µM
HCC827 [6] = test: Protac activity at E3 ubiquitin ligase/EGFR in human HCC827 cells assessed as increase in degradation of EGFR measured upto 96 hrs by Western blot analysis; assay type: cell-based; conditions: time hrs <=96, TDE = time-dependent effect
HCC827 [7] = test: Induction of apoptosis in human HCC827 cells assessed as early apoptotic cells at 0.1 uM incubated for 32 hrs by annexin V-FITC and PI staining based flow cytometry analysis (reference value: 2.31 %); assay type: functional
HCC827 [8] = test: Induction of apoptosis in human HCC827 cells assessed as necrotic cells at 0.1 uM incubated for 32 hrs by annexin V-FITC and PI staining based flow cytometry analysis (reference value: 6.68 %); assay type: functional
HCC827 [9] = test: Induction of cell cycle arrest in human HCC827 cells assessed as accumulation in S phase at 0.1 uM incubated for 32 hrs by PI staining based flow cytometry analysis (reference value: 41.26 %); assay type: functional
HCC827 [10] = test: Induction of apoptosis in human HCC827 cells assessed as viable cells at 1 uM incubated for 32 hrs by annexin V-FITC and PI staining based flow cytometry analysis (reference value: 72.15 %); assay type: functional; conditions: read-out: Activity
A549 [11] = test: Antiproliferative activity against human A549 cells harboring EGFR assessed as reduction in cell viability incubated for 72 hrs by MTT assay; assay type: functional, cell-based; conditions: A549, 72 h
A-431 = test: Antiproliferative activity against human A-431 cells harboring EGFR assessed as reduction in cell viability incubated for 72 hrs by MTT assay; assay type: functional, cell-based; conditions: A-431, 72 h
HCC827 [12] = test: Induction of apoptosis in human HCC827 cells assessed as early apoptotic cells at 1 uM incubated for 32 hrs by annexin V-FITC and PI staining based flow cytometry analysis (reference value: 2.72%); assay type: functional
NCI-H1975 [13] = test: Protac activity at E3 ubiquitin ligase/EGFR in human NCI-H1975 cells harboring EGFR T790M mutant assessed as increase in degradation of EGFR at 0.1 to 10 uM incubated for 48 hrs by Western blot analysis; assay type: cell-based; conditions: dose 0.1-10 µM
HCC827 [14] = test: Induction of apoptosis in human HCC827 cells assessed as late apoptotic cells at 1 uM incubated for 32 hrs by annexin V-FITC and PI staining based flow cytometry analysis (reference value: 18.02%); assay type: functional
NCI-H1975 [15] = test: Antiproliferative activity against human NCI-H1975 cells harboring EGFR L858/T790M mutant assessed as reduction in cell viability incubated for 72 hrs by MTT assay; assay type: functional, cell-based; conditions: NCI-H1975, 72 h
HCC827 [16] = test: Induction of apoptosis in human HCC827 cells assessed as viable cells at 0.1 uM incubated for 32 hrs by annexin V-FITC and PI staining based flow cytometry analysis (reference value: 76.79 %); assay type: functional; conditions: read-out: Activity
HCC827 [17] = test: Induction of cell cycle arrest in human HCC827 cells assessed as accumulation in G1 phase at 0.1 uM incubated for 32 hrs by PI staining based flow cytometry analysis (reference value: 50.48 %); assay type: functional
A549 [18] = test: Protac activity at E3 ubiquitin ligase/EGFR in human A549 cells harboring wild type EGFR assessed as increase in degradation of EGFR at 0.1 to 10 uM incubated for 48 hrs by Western blot analysis; assay type: cell-based; conditions: dose 0.1-10 µM
HCC827 [19] = test: Antiproliferative activity against human HCC827 cells harboring EGFRDel19 mutant assessed as reduction in cell viability incubated for 72 hrs by MTT assay; assay type: functional, cell-based; conditions: HCC827, 72 h
HCC827 [20] = test: Induction of cell cycle arrest in human HCC827 cells assessed as accumulation in G1 phase at 1 uM incubated for 32 hrs by PI staining based flow cytometry analysis (reference value: 50.48 %); assay type: functional
HCC827 [21] = test: (§1) Protac activity at E3 ubiquitin ligase/EGFR in human HCC827 cells assessed as increase in degradation of EGFR incubated for 48 hrs by Western blot analysis; assay type: cell-based
[22] = as §1; assay type: cell-based; conditions: HCC827, 48 h
HCC827 [23] = test: Induction of apoptosis in human HCC827 cells assessed as necrotic cells at 1 uM incubated for 32 hrs by annexin V-FITC and PI staining based flow cytometry analysis (reference value: 7.12 %); assay type: functional
HCC827 [24] = test: Protac activity at E3 ubiquitin ligase/EGFR in human HCC827 cells assessed as increase in degradation of EGFR at 0.1 uM pretreated with (1-(6-(5-(4-(dimethylamino)piperidin-1-yl)pyridin-2-ylamino)-2-(4-fluorophenylamino)pyrido[3,4-d]pyrimidin-4-yl)piperidin-4-yl)methanol and incubated for 6 hrs followed by compound addition and measured after 32 hrs by Western blot analysis; assay type: cell-based
[25] = target: Epidermal growth factor receptor (Homo sapiens) (UniProt P00533); test: Inhibition of EGFR in human HCC827 cells assessed as reduction in EGFR phosphorylation incubated for 36 hrs by Western blot analysis; assay type: cell-based; conditions: dose 0.1-1 µM
Chain of Epidermal growth factor receptor (Homo sapiens) (P00533 whole entry): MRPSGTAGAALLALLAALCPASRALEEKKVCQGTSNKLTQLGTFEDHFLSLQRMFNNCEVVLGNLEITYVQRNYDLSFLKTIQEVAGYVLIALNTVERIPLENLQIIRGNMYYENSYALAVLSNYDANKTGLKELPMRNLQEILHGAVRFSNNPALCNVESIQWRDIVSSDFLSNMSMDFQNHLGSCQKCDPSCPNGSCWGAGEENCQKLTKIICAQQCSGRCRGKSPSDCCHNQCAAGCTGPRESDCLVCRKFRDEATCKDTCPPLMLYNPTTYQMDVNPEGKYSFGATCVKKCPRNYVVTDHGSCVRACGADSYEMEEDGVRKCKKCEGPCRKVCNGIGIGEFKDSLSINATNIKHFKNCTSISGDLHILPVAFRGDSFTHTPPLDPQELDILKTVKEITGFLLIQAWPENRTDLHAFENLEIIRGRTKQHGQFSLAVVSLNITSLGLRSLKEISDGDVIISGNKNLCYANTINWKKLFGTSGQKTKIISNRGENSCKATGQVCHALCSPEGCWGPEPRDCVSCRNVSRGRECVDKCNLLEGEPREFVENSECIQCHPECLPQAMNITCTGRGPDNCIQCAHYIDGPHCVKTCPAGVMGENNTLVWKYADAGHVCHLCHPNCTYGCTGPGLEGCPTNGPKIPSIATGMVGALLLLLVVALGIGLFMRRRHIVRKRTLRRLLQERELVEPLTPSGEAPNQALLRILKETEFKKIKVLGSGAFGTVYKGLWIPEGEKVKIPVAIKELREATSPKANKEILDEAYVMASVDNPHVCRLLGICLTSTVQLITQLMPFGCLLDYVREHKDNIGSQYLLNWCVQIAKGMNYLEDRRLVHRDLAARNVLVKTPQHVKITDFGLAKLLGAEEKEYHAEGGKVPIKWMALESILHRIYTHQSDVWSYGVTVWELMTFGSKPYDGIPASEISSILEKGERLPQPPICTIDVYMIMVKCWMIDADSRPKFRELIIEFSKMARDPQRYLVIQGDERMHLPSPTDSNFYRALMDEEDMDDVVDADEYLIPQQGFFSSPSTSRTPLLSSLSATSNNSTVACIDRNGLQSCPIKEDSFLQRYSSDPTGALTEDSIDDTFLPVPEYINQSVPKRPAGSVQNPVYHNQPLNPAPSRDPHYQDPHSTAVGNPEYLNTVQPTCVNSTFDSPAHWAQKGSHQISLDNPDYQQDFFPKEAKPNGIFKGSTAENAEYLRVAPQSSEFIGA

HCC827 [26] = test: Induction of cell cycle arrest in human HCC827 cells assessed as accumulation in G2 phase at 1 uM incubated for 32 hrs by PI staining based flow cytometry analysis (reference value: 8.25 %); assay type: functional
HCC827 [27] = test: Induction of cell cycle arrest in human HCC827 cells assessed as accumulation in G2 phase at 0.1 uM incubated for 32 hrs by PI staining based flow cytometry analysis (reference value: 8.25 %); assay type: functional
HCC827 [28] = test: Induction of apoptosis in human HCC827 cells assessed as late apoptotic cells at 0.1 uM incubated for 32 hrs by annexin V-FITC and PI staining based flow cytometry analysis (reference value: 14.23 %); assay type: functional
HCC827 [29] = test: Protac activity at E3 ubiquitin ligase/EGFR in human HCC827 cells assessed as increase in degradation of EGFR at 100 nM incubated for 96 hrs by Western blot analysis relative to control; assay type: cell-based
HCC827 [30] = test: Protac activity at E3 ubiquitin ligase/EGFR in human HCC827 cells assessed as increase in degradation of EGFR at 100 nM pretreated with lenalidomide for 2 hrs followed by compound addition and measured after 48 hrs by Western blot analysis; assay type: cell-based

With `Cc1ncsc1-c1ccc(CNC(=O)[C@@H]2C[C@@H](O)CN2C(=O)[C@@H](NC(=O)CCCCCCN2CCN(c3ccc(Nc4cc5c(N6CCC(CO)CC6)nc(Nc6ccc(F)cc6)nc5cn4)nc3)CC2)C(C)(C)C)cc1` the Activity (HCC827 [1]) was 7.99%, the Activity (HCC827 [2]) was “inactive” and the Emax (HCC827 [3]) was 98%. For the same compound, the Activity (HCC827 [4]) was “inactive”, the Activity (HCC827 [5]) was “Active” and the Activity (HCC827 [6]) was “Tde”. For the same compound, the Activity (HCC827 [7]) was 7.95%, the Activity (HCC827 [8]) was 6.62% and the Activity (HCC827 [9]) was 11.67%. It also gave a viability at 1 µM (HCC827 [10]) of 22.4%, an IC50 (A549 [11]) of over 10 µM and an IC50 (A-431) of over 10 µM. For the same compound, the Activity (HCC827 [12]) was 4.36%, the Activity (NCI-H1975 [13]) was “Active” and the Activity (HCC827 [14]) was 63.29%. It also gave an IC50 (NCI-H1975 [15]) of over 10 µM, a viability at 0.1 µM (HCC827 [16]) of 59.7% and an Activity (HCC827 [17]) of 81.94%. For the same compound, the Activity (A549 [18]) was “Active”, the IC50 (HCC827 [19]) was 0.22 µM and the Activity (HCC827 [20]) was 83.15%. The Activity (HCC827 [21]) was “Dose-dependent effect”, the DC50 [22] was 0.0348 µM and the Activity (HCC827 [23]) was 9.9%. For the same compound, the Activity (HCC827 [24]) was “inactive”, the inhibition [25] was “Dose-dependent effect” and the Activity (HCC827 [26]) was 8.86%. The Activity (HCC827 [27]) was 6.39% and the Activity (HCC827 [28]) was 25.73%.

For `O=C1CCC(N2Cc3c(NC(=O)CCCCCCCN4CCN(c5ccc(Nc6cc7c(N8CCC(CO)CC8)nc(Nc8ccc(F)cc8)nc7cn6)nc5)CC4)cccc3C2=O)C(=O)N1` (stereo not drawn), the Activity (HCC827 [1]) was 10.63%, the Emax (HCC827 [29]) was 87% and the Activity (HCC827 [4]) was “inactive”. For the same compound, the Activity (HCC827 [5]) was “Active”, the Activity (HCC827 [6]) was “Tde” and the Activity (HCC827 [7]) was 5.93%. For the same compound, the Activity (HCC827 [8]) was 8.21%, the Activity (HCC827 [9]) was 10.79% and the viability at 1 µM (HCC827 [10]) was 35.5%. For the same compound, the IC50 (A549 [11]) was over 10 µM, the IC50 (A-431) was over 10 µM and the Activity (HCC827 [12]) was 4.16%. For the same compound, the Activity (HCC827 [30]) was “inactive”, the Activity (NCI-H1975 [13]) was “Active” and the Activity (HCC827 [14]) was 49.56%. The IC50 (NCI-H1975 [15]) was over 10 µM, the viability at 0.1 µM (HCC827 [16]) was 59.5% and the Activity (HCC827 [17]) was 82.95%. For the same compound, the Activity (A549 [18]) was “Active”, the IC50 (HCC827 [19]) was 0.18 µM and the Activity (HCC827 [20]) was 81.89%. The Activity (HCC827 [21]) was “Dose-dependent effect”, the DC50 [22] was 0.0452 µM and the Activity (HCC827 [23]) was 9.74%. For the same compound, the Activity (HCC827 [24]) was “inactive”, the inhibition [25] was “Dose-dependent effect” and the Activity (HCC827 [26]) was 7.47%. It also gave an Activity (HCC827 [27]) of 6.26% and an Activity (HCC827 [28]) of 26.38%.
